In article PMC7915026, “Sulfaguanidine Hybrid with Some New Pyridine-2-One Derivatives: Design, Synthesis, and Antimicrobial Activity against Multidrug-Resistant Bacteria as Dual DNA Gyrase and DHFR Inhibitors” (Antibiotics, 2021):
Converted amounts (≈) assume the structure as drawn. Where two headings read alike, the source gives them in different places.

Assays:
[1] = tested on: Salmonella typhi (S. typhi ATCC 6539); test: microbe, parasite or virus in culture; format: cell-based; conditions: Salmonella enterica, Salmonella typhi
B. subtilis ATCC 6633 [2] = test: MIC and MBC determination; format: cell-based; conditions: B. subtilis
S. aureus ATCC 29213 [3] = test: MIC and MBC determination; format: cell-based; conditions: S. aureus
S. aureus ATCC 33591 [4] = test: MIC and MBC against multidrug-resistant strains; format: cell-based; conditions: Staphylococcus aureus, ATCC33591, S. aureus ATCC 33591
Text: (§1) Norfloxacin was used as a positive control for the multidrug resistance study.
(§2) The experiment was repeating for three-times.

S. aureus ATCC 43300 [5] = test: MIC and MBC against multidrug-resistant strains; format: cell-based; conditions: Staphylococcus aureus, ATCC43300, S. aureus ATCC 43300
Text: as §1, §2

[6] = tested on: P. aeruginosa ATCC BAA-2111; test: MIC and MBC against multidrug-resistant strains; format: cell-based; conditions: P. aeruginosa ATCC BAA-2111
Text: as §1, §2

E. coli ATCC BAA-196 [7] = test: MIC and MBC against multidrug-resistant strains; format: cell-based; conditions: Escherichia coli, ATCCBAA196, E. coli ATCC BAA-196
Text: as §1, §2

MDRB strains = test: MIC and MBC, ranges over the MDRB panel; format: cell-based; conditions: four MDRB strains
Text: as §1, §2

C. albicans (ATCC 10231) [8] = test: MIC and MFC determination; format: cell-based
S. aureus DNA gyrase = S. aureus DNA gyrase (Staphylococcus aureus, UniProt P0A0K8+P20831); test: In vitro DNA gyrase supercoiling enzymatic assay; format: biochemical
Chain of S. aureus DNA gyrase (P20831 whole entry): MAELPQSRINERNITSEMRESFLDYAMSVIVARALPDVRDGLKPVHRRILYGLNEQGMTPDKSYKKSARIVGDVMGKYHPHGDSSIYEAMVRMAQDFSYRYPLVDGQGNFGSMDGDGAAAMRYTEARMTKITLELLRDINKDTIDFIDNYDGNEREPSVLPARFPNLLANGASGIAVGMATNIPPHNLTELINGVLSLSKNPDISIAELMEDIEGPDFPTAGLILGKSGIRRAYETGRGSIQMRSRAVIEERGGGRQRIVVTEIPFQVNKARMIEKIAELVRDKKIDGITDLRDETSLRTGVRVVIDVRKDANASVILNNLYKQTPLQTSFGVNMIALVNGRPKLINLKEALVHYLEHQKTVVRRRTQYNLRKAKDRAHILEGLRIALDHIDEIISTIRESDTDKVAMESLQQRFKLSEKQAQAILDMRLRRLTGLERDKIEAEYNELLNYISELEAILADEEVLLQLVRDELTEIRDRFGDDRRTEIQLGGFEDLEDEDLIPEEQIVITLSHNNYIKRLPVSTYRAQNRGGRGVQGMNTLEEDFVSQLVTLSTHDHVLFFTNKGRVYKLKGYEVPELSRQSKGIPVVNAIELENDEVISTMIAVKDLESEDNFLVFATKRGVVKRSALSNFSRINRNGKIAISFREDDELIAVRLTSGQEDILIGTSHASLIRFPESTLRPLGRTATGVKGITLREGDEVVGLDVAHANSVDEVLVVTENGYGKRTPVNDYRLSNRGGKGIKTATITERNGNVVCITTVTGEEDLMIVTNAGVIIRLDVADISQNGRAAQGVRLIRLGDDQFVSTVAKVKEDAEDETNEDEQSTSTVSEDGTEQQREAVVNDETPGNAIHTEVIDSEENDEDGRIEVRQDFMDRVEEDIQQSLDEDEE
Chain of S. aureus DNA gyrase (P0A0K8 whole entry): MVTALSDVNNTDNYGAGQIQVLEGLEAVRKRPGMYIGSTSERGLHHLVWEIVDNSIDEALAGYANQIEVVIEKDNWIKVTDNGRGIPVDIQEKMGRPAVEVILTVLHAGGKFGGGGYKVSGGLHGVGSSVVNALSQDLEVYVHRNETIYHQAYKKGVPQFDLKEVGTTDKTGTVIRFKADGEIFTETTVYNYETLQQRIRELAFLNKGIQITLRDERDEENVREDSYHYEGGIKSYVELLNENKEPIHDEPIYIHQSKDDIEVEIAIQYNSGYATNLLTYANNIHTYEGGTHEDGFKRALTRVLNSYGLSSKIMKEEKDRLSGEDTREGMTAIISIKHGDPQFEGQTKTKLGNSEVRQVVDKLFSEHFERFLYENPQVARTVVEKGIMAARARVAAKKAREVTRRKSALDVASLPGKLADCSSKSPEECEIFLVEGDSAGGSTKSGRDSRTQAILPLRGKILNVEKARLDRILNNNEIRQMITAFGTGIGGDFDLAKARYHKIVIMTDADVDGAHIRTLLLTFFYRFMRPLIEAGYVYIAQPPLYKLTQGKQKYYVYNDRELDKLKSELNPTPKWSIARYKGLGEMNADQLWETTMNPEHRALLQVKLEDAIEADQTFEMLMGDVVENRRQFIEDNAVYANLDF

S. aureus ATCC 33591 [9] = test: Inhibition zone against multidrug-resistant bacteria; format: cell-based; conditions: MDRB S. aureus ATCC 33591
Text: as §1
(§3) The antimicrobial activity performed at the bacteriology laboratory, Botany and Microbiology Department, Faculty of Science, Al-Azhar University, Cairo, Egypt. The inhibition zone (IZ) of the tested derivatives expressed as the diameter (mm) according to the agar plate diffusion method.

S. aureus ATCC 43300 [10] = test: as above; format: cell-based; conditions: MDRB S. aureus ATCC 43300
Text: as §1, §3

[11] = tested on: P. aeruginosa ATCC BAA-2111; test: as above; format: cell-based; conditions: MDRB P. aeruginosa ATCC BAA-2111
Text: as §1, §3

E. coli ATCC BAA-196 [12] = test: as above; format: cell-based; conditions: MDRB E. coli ATCC BAA-196
Text: as §1, §3

E. coli ATCC 25922 [13] = test: MIC and MBC determination; format: cell-based; conditions: E. coli
[14] = molecular target: E. coli DHFR (dihydrofolate reductase) (Escherichia coli, UniProt P0ABQ4); test: In vitro DHFR enzymatic assay; format: biochemical
Chain of E. coli DHFR (dihydrofolate reductase) (P0ABQ4 whole entry, the tested form may be a part): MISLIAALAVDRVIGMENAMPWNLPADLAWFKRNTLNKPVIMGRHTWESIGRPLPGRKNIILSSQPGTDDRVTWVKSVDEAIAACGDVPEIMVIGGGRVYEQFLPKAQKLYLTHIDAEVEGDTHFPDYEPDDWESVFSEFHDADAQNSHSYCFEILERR

S. aureus ATCC 29213 [15] = test: Inhibition zone, paper disk/agar diffusion; format: cell-based; conditions: S. aureus; Na = no activity
Text: as §3

E. faecalis ATCC 29212 [16] = test: Inhibition zone, paper disk/agar diffusion; format: cell-based; conditions: E. faecalis; Na = no activity
Text: as §3

[17] = tested on: F. oxysporum (RCMB 008002); test: Inhibition zone, paper disk/agar diffusion; format: cell-based; conditions: Na = no activity
Text: as §3

C. albicans (ATCC 10231) [18] = test: Inhibition zone, paper disk/agar diffusion; format: cell-based; conditions: Na = no activity
Text: as §3

S. typhi ATCC 6539 = test: Inhibition zone, paper disk/agar diffusion; format: cell-based; conditions: S. typhi; Na = no activity
Text: as §3

P. aeruginosa ATCC 27853 [19] = test: Inhibition zone, paper disk/agar diffusion; format: cell-based; conditions: P. aeruginosa; Na = no activity
Text: as §3

E. coli ATCC 25922 [20] = test: Inhibition zone, paper disk/agar diffusion; format: cell-based; conditions: E. coli; Na = no activity
Text: as §3

B. subtilis ATCC 6633 [21] = test: Inhibition zone, paper disk/agar diffusion; format: cell-based; conditions: B. subtilis; Na = no activity
Text: as §3

E. faecalis ATCC 29212 [22] = test: MIC and MBC determination; format: cell-based; conditions: E. faecalis
P. aeruginosa ATCC 27853 [23] = test: MIC and MBC determination; format: cell-based; conditions: Pseudomonas aeruginosa, ATCC27853, P. aeruginosa
[24] = tested on: F. oxysporum (RCMB 008002); test: MIC and MFC determination; format: cell-based

For `N#Cc1c(-c2ccc(Cl)cc2)c(C#N)c(=O)n(-c2ccc(S(=O)(=O)NC(=N)N)cc2)c1N` [Compound 3a, 4-(6-Amino-4-(4-chlorophenyl)-3,5-dicyano-2-oxopyridin-1(2H)-yl)-N-carbamimidoylbenzenesulfonamide], the MBC ([1]; read-out: MBC) was 22.6 ± 0.32 µM (≈ 10.6 µg/mL), the MIC ([1]; read-out: MIC) was 11.9 ± 0.62 µM (≈ 5.57 µg/mL) and the MBC (B. subtilis ATCC 6633 [2]) was 19.6 ± 0.65 µM (≈ 9.17 µg/mL). It also gave an MIC (B. subtilis ATCC 6633 [2]) of 9.61 ± 1.65 µM (≈ 4.5 µg/mL), an MBC (B. subtilis ATCC 6633 [2]; Bacillus subtilis, ATCC6633, read-out: MBC) of 19.6 µM (≈ 9.17 µg/mL) and an MIC (B. subtilis ATCC 6633 [2]; Bacillus subtilis, ATCC6633, read-out: MIC) of 9.61 µM (≈ 4.5 µg/mL). For the same compound, the MBC (S. aureus ATCC 29213 [3]) was 33.38 ± 0.65 µM (≈ 15.6 µg/mL), the MIC (S. aureus ATCC 29213 [3]) was 16.69 ± 0.87 µM (≈ 7.81 µg/mL) and the MBC (S. aureus ATCC 29213 [3]; Staphylococcus aureus, ATCC29213, read-out: MBC) was 33.4 µM (≈ 15.6 µg/mL). It also gave an MIC (S. aureus ATCC 29213 [3]; Staphylococcus aureus, ATCC29213, read-out: MIC) of 16.7 µM (≈ 7.81 µg/mL), an MBC (S. aureus ATCC 33591 [4]; read-out: MBC) of 23.7 ± 0.28 µM (≈ 11.1 µg/mL) and an MIC (S. aureus ATCC 33591 [4]; read-out: MIC) of 11.8 ± 0.24 µM (≈ 5.54 µg/mL). For the same compound, the MBC (S. aureus ATCC 43300 [5]; read-out: MBC) was 16.3 ± 0.36 µM (≈ 7.61 µg/mL), the MIC (S. aureus ATCC 43300 [5]; read-out: MIC) was 8.33 ± 0.29 µM (≈ 3.9 µg/mL) and the MBC [6] was 14.23 ± 0.65 µM (≈ 6.66 µg/mL). For the same compound, the MIC [6] was 9.48 ± 0.54 µM (≈ 4.44 µg/mL), the MBC ([6]; Pseudomonas aeruginosa, ATCCBAA2111, read-out: MBC) was 14.2 µM (≈ 6.66 µg/mL) and the MIC ([6]; Pseudomonas aeruginosa, ATCCBAA2111, read-out: MIC) was 9.48 µM (≈ 4.44 µg/mL). The MBC (E. coli ATCC BAA-196 [7]; read-out: MBC) was 33.4 ± 0.84 µM (≈ 15.6 µg/mL), the MIC (E. coli ATCC BAA-196 [7]; read-out: MIC) was 16.7 ± 0.41 µM (≈ 7.81 µg/mL) and the MBC range (MDRB strains) was 14.23 to 33.38 µM. The MIC range (MDRB strains) was 8.33 to 16.69 µM, the MFC (C. albicans (ATCC 10231) [8]) was 26.69 ± 0.54 µM (≈ 12.5 µg/mL) and the MFC/MIC (C. albicans (ATCC 10231) [8]) was <2. It also gave an MIC (C. albicans (ATCC 10231) [8]) of 16.69 ± 0.75 µM (≈ 7.81 µg/mL), an MFC (C. albicans (ATCC 10231) [8]; Candida albicans, ATCC10231, read-out: MFC) of 26.7 µM (≈ 12.5 µg/mL) and an MIC (C. albicans (ATCC 10231) [8]; Candida albicans, ATCC10231, read-out: MIC) of 16.7 µM (≈ 7.81 µg/mL). The IC50 (S. aureus DNA gyrase) was 22 ± 1.35 µM, the “fold potency relative to ciprofloxacin” value (S. aureus DNA gyrase; S. aureus DNA gyrase IC50) was ~1.19 fold and the “Mean Diameter of Inhibition Zone” value (S. aureus ATCC 33591 [9]) was 23 ± 0.47 mm. For the same compound, the “Mean Diameter of Inhibition Zone” value (S. aureus ATCC 43300 [10]) was 25 ± 0.4 mm, the “Mean Diameter of Inhibition Zone” value [11] was 24 ± 0.22 mm and the “Mean Diameter of Inhibition Zone” value (E. coli ATCC BAA-196 [12]) was 22 ± 0.23 mm. The MBC (E. coli ATCC 25922 [13]) was 30.02 ± 0.52 µM (≈ 14 µg/mL), the MIC (E. coli ATCC 25922 [13]) was 16.69 ± 0.84 µM (≈ 7.81 µg/mL) and the MBC (E. coli ATCC 25922 [13]; Escherichia coli, ATCC25922, read-out: MBC) was 30 µM (≈ 14 µg/mL). For the same compound, the MIC (E. coli ATCC 25922 [13]; Escherichia coli, ATCC25922, read-out: MIC) was 16.7 µM (≈ 7.81 µg/mL), the IC50 [14] was 5.44 ± 0.95 µM and the “fold relative to trimethoprim” value ([14]; E. coli DHFR IC50) was 0.94 fold. The “Mean Diameter of the Inhibition Zone” value (S. aureus ATCC 29213 [15]) was 25 ± 0.31 mm, the “Mean Diameter of the Inhibition Zone” value (E. faecalis ATCC 29212 [16]) was 21 ± 0.11 mm and the “Mean Diameter of the Inhibition Zone” value [17] was 21 ± 0.30 mm. For the same compound, the “Mean Diameter of the Inhibition Zone” value (C. albicans (ATCC 10231) [18]) was 22 ± 0.35 mm, the “Mean Diameter of the Inhibition Zone” value (S. typhi ATCC 6539) was 18 ± 0.16 mm and the “Mean Diameter of the Inhibition Zone” value (P. aeruginosa ATCC 27853 [19]) was 20 ± 0.15 mm. The “Mean Diameter of the Inhibition Zone” value (E. coli ATCC 25922 [20]) was 24 ± 0.20 mm, the “Mean Diameter of the Inhibition Zone” value (B. subtilis ATCC 6633 [21]) was 31 ± 0.40 mm and the MBC (E. faecalis ATCC 29212 [22]) was 15.83 ± 0.47 µM (≈ 7.41 µg/mL). For the same compound, the MIC (E. faecalis ATCC 29212 [22]) was 8.33 ± 0.36 µM (≈ 3.9 µg/mL), the MBC (E. faecalis ATCC 29212 [22]; Enterococcus faecalis, ATCC29212, read-out: MBC) was 15.8 µM (≈ 7.41 µg/mL) and the MIC (E. faecalis ATCC 29212 [22]; Enterococcus faecalis, ATCC29212, read-out: MIC) was 8.33 µM (≈ 3.9 µg/mL). The MBC (P. aeruginosa ATCC 27853 [23]; read-out: MBC) was 66.8 ± 0.87 µM (≈ 31.2 µg/mL), the MIC (P. aeruginosa ATCC 27853 [23]; read-out: MIC) was 33.4 ± 0.35 µM (≈ 15.6 µg/mL) and the MFC [24] was 56.74 ± 0.98 µM (≈ 26.5 µg/mL). For the same compound, the MFC/MIC [24] was <2, the MIC [24] was 33.38 ± 0.74 µM (≈ 15.6 µg/mL) and the MFC ([24]; Fusarium oxysporum, RCMB008002, read-out: MFC) was 56.7 µM (≈ 26.5 µg/mL). The MIC ([24]; Fusarium oxysporum, RCMB008002, read-out: MIC) was 33.4 µM (≈ 15.6 µg/mL).
